Patent US20100305068A1, “COMPOUNDS AND METHODS FOR MODULATING PROTEIN TRAFFICKING” (priority 2006, published 2010)
Read-outs that look alike come from different tables or passages of the source.

System: pdr5 ypt1^ts cells
Test: microbe, parasite or virus in culture
Format: cell-based, yeast
Details: for minimal effective concentration: Saccharomyces cerevisiae, read-out: ypt1-ts MRC (minimal rescue concentration); for optical density, ypt1-ts, 0.39: 0.39 μM compound; for optical density, ypt1-ts, 0.39 / optical density, ypt1-ts, 0.78 / optical density, ypt1-ts, 1.56 / optical density, ypt1-ts, 3.13 / optical density, ypt1-ts, 6.25 / optical density, ypt1-ts, 12.5 / optical density, ypt1-ts, 25: background (0 μM) 0.058; for optical density, ypt1-ts, 0.78: 0.78 μM compound; for optical density, ypt1-ts, 1.56: 1.56 μM compound; for optical density, ypt1-ts, 3.13: 3.13 μM compound; for optical density, ypt1-ts, 6.25: 6.25 μM compound; for optical density, ypt1-ts, 12.5: 12.5 μM compound; for optical density, ypt1-ts, 25: 25 μM compound
Text: The activity of the compounds as modulators of protein trafficking may be measured in the assays described herein that evaluate the ability of a compound to rescue an impairment in protein trafficking. For example, the yeast mutant cell line ypt1^ts can be used to identify compounds that rescue cells from the lethal phenotype of a mutant YPT1 allele (see, e.g., Examples and Schmitt et al. (1988) Cell 53:635-47). The activity may be measured, for example, in a whole yeast cell assay using 384-well screening protocol and an optical density measurement.
The yeast mutant cell line ypt1^ts suppresses, in a temperature dependent fashion, the dominant-lethal phenotype of a mutant YPT1 allele (Schmitt et al. (1988) Cell 53:635-47). ypt1^ts cells grow normally at temperatures up to 30° C., but are growth arrested at 37° C. (Id.).
A library of compounds (“The Spectrum Collection”) obtained from Microsource Discovery Systems, Inc. (Gaylordsville, Conn.) was screened to assess the ability of individual compounds to restore growth of ypt1^ts cells. Screening was carried out using ypt1^ts cells containing a mutation in the pdr5 gene (resulting in inactivation of a membrane efflux pump). The effect of the compounds was measured in pdr5 ypt1^ts cells cultured at 37° C.

[1] = Table 2, lowest concentration tested giving growth above the 0 μM background, 37° C.
[2] = Table 3, 3.13 uM compound, 37° C., background (0 uM) 0.077
[3] = Table 3, 12.5 uM compound, 37° C., background (0 uM) 0.077
[4] = Table 3, 50 uM compound, 37° C., background (0 uM) 0.077

Row | SMILES | minimal effective concentration [1] [µM] | optical density, ypt1-ts, 0.39 (Table 2, 37° C.) | optical density, ypt1-ts, 0.78 (Table 2, 37° C.) | optical density, ypt1-ts, 1.56 (Table 2, 37° C.) | optical density, ypt1-ts, 3.13 (Table 2, 37° C.) | optical density, ypt1-ts, 6.25 (Table 2, 37° C.) | optical density, ypt1-ts, 12.5 (Table 2, 37° C.) | optical density, ypt1-ts, 25 (Table 2, 37° C.) | optical density, 3.13 uM [2] | optical density, 12.5 uM [3] | optical density, 50 uM [4] | also measured
1 | O=C(/C=C/c1ccccc1)c1ccc(O)cc1 [4'- HYDROXYCHALCONE] | 12.5 | 0.088 | 0.073 | 0.079 | 0.093 | 0.1 | 0.329 | 0.552 |  |  |  | 
2 | COc1ccc(-c2cc(=O)c3ccccc3o2)cc1 [4′-METHOXYFLAVONE] | 1.56 | 0.111 | 0.077 | 0.136 | 0.474 | 0.567 | 0.556 | 0.557 |  |  |  | 
3 | COc1ccccc1-c1cc(=O)c2c(OC)cccc2o1 [5,2′- DIMETHOXY- FLAVONE] |  |  |  |  |  |  |  |  | 0.088 | 0.256 | 0.383 | 
4 | C=C1CCC2C(CC2(C)C)C(=C)CC/C1=N/O (stereo not shown) [5- HYDROXYIMINOISOC ARYOPHYLLENE] | 12.5 | 0.096 | 0.077 | 0.087 | 0.108 | 0.117 | 0.131 | 0.153 |  |  |  | 
5 | C[C@]12CCC(=O)C[C@@H]1CC[C@@H]1[C@@H]2CC[C@]2(C)C(=O)CC[C@@H]12 [5alpha- ANDROSTAN- 3,17-DIONE] |  |  |  |  |  |  |  |  |  |  |  | optical density, 3.13 uM: 0.11; optical density, 12.5 uM: 0.16; optical density, 50 uM: 0.319
6 | C=C1C([C@@]2(C)[C@@H](C)CC(=O)C(C)(C)[C@@H]2C(OC(C)=O)C(=O)OC)CC[C@@]2(C)[C@H](c3ccoc3)OC(=O)C[C@]12O (stereo partly shown) [6-ACETOXY- […] METHYL ESTER] |  |  |  |  |  |  |  |  | 0.131 | 0.364 | 0.489 | 
7 | C=C1C2CC[C@@]3(C)[C@H](c4ccoc4)OC(=O)C[C@]13O[C@H]1CC(=O)C(C)(C)[C@H](C(O)C(=O)OC)[C@@]21C (stereo partly shown) [6-HYDROXY- […] METHYL ESTER] |  |  |  |  |  |  |  |  | 0.232 | 0.561 | 0.626 | 
8 | COc1ccc2c(=O)cc(-c3ccccc3OC)oc2c1 [7,2′- DIMETHOXY- FLAVONE] |  |  |  |  |  |  |  |  | 0.098 | 0.156 | 0.3 | 
9 | COc1ccc(-c2coc3cc(OC)ccc3c2=O)cc1 [7,4′- DIMETH- OXYISO- FLAVONE] |  |  |  |  |  |  |  |  | 0.222 | 0.551 | 0.513 | 
10 | CC1(C)C(=O)C=C[C@@]2(C)C1CC(=O)[C@@]1(C)C3=CC(=O)O[C@@H](c4ccoc4)[C@]3(C)CCC12 (stereo partly shown) [7-DEACETOXY- 7-OXODEOXY- GEDUNIN] |  |  |  |  |  |  |  |  | 0.335 | 0.604 | 0.67 | 
11 | CC1(C)C(=O)C=C[C@]2(C)[C@H]3CC[C@@]4(C)[C@H](c5ccoc5)OC(=O)[C@H]5O[C@]54[C@]3(C)C=C[C@@H]12 [7-DESACETOXY-6,7- DEHYDROGEDUNIN] | 12.5 | 0.094 | 0.071 | 0.074 | 0.093 | 0.099 | 0.171 | 0.308 |  |  |  | 
12 | COc1ccc(-c2coc3c(OC)c(O)ccc3c2=O)cc1 [7-HYDROXY- 8,4′-DIMETH- OXYISO- FLAVONE] |  |  |  |  |  |  |  |  | 0.121 | 0.151 | 0.398 | 
13 | COc1ccccc1-c1cc(=O)c2cccc(OC)c2o1 [8,2′- DIMETHOXY- FLAVONE] |  |  |  |  |  |  |  |  | 0.083 | 0.234 | 0.674 | 
14 | COC(=O)C[C@H]1C(C)(C)C2(O)OC34CC2C(=O)[C@]1(C)C3CC[C@]1(C)C4=CC(=O)O[C@H]1c1ccoc1 (stereo partly drawn) [8beta- HYDROXY- CARAPIN, 3,8- HEMIACETAL] |  |  |  |  |  |  |  |  | 0.151 | 0.383 | 0.486 | 
15 | Cc1ccc2c(c1)CC[C@H]1CC(=O)CC[C@]21C [13-METHYL- 4,4-BISNOR- 8,11,13- PODO- […]- 3-ONE] |  |  |  |  |  |  |  |  | 0.082 | 0.152 | 0.424 | 
16 | COc1cccc2c1CCC1CC(=O)CC[C@]21C (stereo partly shown) [14-METHOXY-4,4- BISNOR-8,11,13- PODOCARPATRIEN-3- ONE] | 12.5 | 0.088 | 0.074 | 0.075 | 0.088 | 0.096 | 0.191 | 0.48 |  |  |  | 
17 | COC(=O)C[C@H]1C(C)(C)C(=O)[C@@H]2CC3=C4CC(OC)O[C@@H](c5ccoc5)[C@]4(C)CCC3[C@@]1(C)C2=O (stereo partly shown) [16-DEOXO- MEXICANOLIDE 16-METHYL ETHER] |  |  |  |  |  |  |  |  | 0.3 | 0.528 | 0.55 | 
18 | CC(C)c1ccc2c(c1)CCC1[C@](C)(CN)CCC[C@]21C.O=S(=O)(O)O (stereo partly shown) [18-AMINO ABIETA- 8,11,13- TRIENE SULFATE] |  |  |  |  |  |  |  |  | 0.055 | 0.06 | 0.378 | 
19 | COc1ccc2cc([C@H](C)C(=O)O)ccc2c1 [(+)NAPROXEN, reference compound] |  |  |  |  |  |  |  |  |  |  |  | minimal effective concentration: 25 µM
20 | CC(C)C1=CC2=CC[C@H]3[C@](C)(CO)CCC[C@]3(C)C2CC1 (stereo partly shown) [ABIETANOL] |  |  |  |  |  |  |  |  | 0.102 | 0.274 | 0.29 | 
21 | CC(C)C1=CC2=CCC3[C@](C)(CCC[C@]3(C)C(=O)O)C2CC1 (stereo partly shown) [ABIETIC ACID] | 3.13 | 0.107 | 0.079 | 0.1 | 0.165 | 0.173 | 0.528 | 0.61 |  |  |  | 
22 | CC(=O)Nc1ccc(OC(=O)c2ccccc2O)cc1 [ACETAMINOSALOL, reference compound] | 12.5 | 0.085 | 0.078 | 0.083 | 0.085 | 0.103 | 0.127 | 0.198 |  |  |  | 
23 | CC(=O)OCC[N+](C)(C)C.[Cl-] [ACETYLCHOLINE, reference compound] | 6.25 | 0.104 | 0.087 | 0.085 | 0.113 | 0.164 | 0.27 | 0.352 |  |  |  | 
24 | C[n+]1c2cc(N)ccc2cc2ccc(N)cc21.[Cl-] [ACRIFLAV- INIUM HYDRO- CHLORIDE, reference compound] |  |  |  |  |  |  |  |  | 0.126 | 0.229 | 0.151 | 
25 | CCc1cccc(CC)c1N(COC)C(=O)CCl [ALACHLOR] |  |  |  |  |  |  |  |  | 0.101 | 0.142 | 0.45 | 
26 | COc1c2c(cc3c1OCO3)[C@]13C=C[C@H](OC)C[C@H]1N(C2)C[C@@H]3O [AMBELLINE] |  |  |  |  |  |  |  |  | 0.071 | 0.302 | 0.057 | 
27 | COc1ccc([C@@H](C)C(=O)c2ccc(O)cc2O)cc1 [ANGOLENSIN (R)] |  |  |  |  |  |  |  |  | 0.327 | 0.652 | 0.062 | 
28 | CC(=O)O[C@@H]1C[C@@]2(C)[C@H](c3ccoc3)C[C@H]3O[C@]32[C@]2(C)C(=O)C(O)=C3C(C)(C)C(=O)C=C[C@]3(C)[C@@H]12 [ANTHOTHECOL] | 3.13 | 0.161 | 0.085 | 0.12 | 0.262 | 0.537 | 0.581 | 0.557 |  |  |  | 
29 | C#CCCCCCCCCCCCC(O)CC(O)CO (stereo not shown) [AVO- CADYNE] |  |  |  |  |  |  |  |  | 0.132 | 0.425 | 0.265 | 
30 | C#CCCCCCCCCCCCC(=O)CC(O)COC(C)=O (stereo not shown) [AVO- CADYNONE ACETATE] |  |  |  |  |  |  |  |  | 0.126 | 0.275 | 0.057 | 
